Results reported in patent US9499550B2 (BRISTOL-MYERS SQUIBB COMPANY, priority 2012, dated 2016).
Like-named read-outs stand apart in the source and are kept apart here.

Assays:
[1] = test system: HCV genotype 1b (Con1) replicon in HUH-7 cells; assay: HCV replicon luciferase reporter assay, genotype 1b; type: cell-based; conditions: Hepatitis C virus, Huh-7, 72 h, HCV genotype 1b replicon luciferase assay, 3 days incubation
Outline: (§1)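 Replicon inhibition for both genotypes was measured as Renilla luciferase signal (EnduRen, 7.5 μM final, 2 h) after 3-day, 37° C exposure of replicon-bearing HUH-7 cells in 4% FCS DMEM, 0.5% DMSO. The 1b construct carries S1179I; the 1a H77 construct carries P1496L and S2204I. Twenty-point, 3-fold dilutions were fitted four-parametrically for EC50, and CC50 was taken from multiplexed Cell Titer-Blue.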

[2] = test system: HCV genotype 1a (H77 strain) replicon in HUH-7 cells; assay: HCV replicon luciferase reporter assay, genotype 1a; type: cell-based; conditions: Hepatitis C virus, Huh-7, 72 h, HCV genotype 1a replicon luciferase assay, 3 days incubation
Outline: as §1

[3] = range class, read-out: LE_1b (EC50, range)
[4] = range class, read-out: LE_1a (EC50, range)

SMILES | EC50 [1, 3] [µM] | EC50 ([1]; read-out: LE_1b (EC50)) [µM] | EC50 [2, 4] [µM] | EC50 ([2]; read-out: LE_1a (EC50)) [µM]
CC(C)n1nc(O[C@@H]2C[C@H]3C(=O)N[C@]4(C(=O)NS(=O)(=O)C5(C)CC5)C[C@H]4/C=C\CC[C@@H](C)C[C@@H](C)[C@H](NC(=O)OC(C)(C)C)C(=O)N3C2)c2ccccc2c1=O [Compound 1004, tert-butyl ((2R,6S,7R,9R,13aS,14aR,16aS,Z)-2-((3-isopropyl-4-oxo-3,4-dihydrophthalazin-1-yl)oxy)-7,9-dimethyl-14a-(((1-methylcyclopropyl)sulfonyl)carbamoyl)-5,16-dioxo-1,2,3,5,6,7,8,9,10,11,13a,14,14a,15,16,16a-hexadecahydrocyclopropa[e]pyrrolo[1,2-a][1,4]diazacyclopentadecin-6-yl)carbamate] | 0.00482 to 0.103 | 0.0488 | > 0.0874 | 0.11
COCCn1nc(O[C@@H]2C[C@H]3C(=O)N[C@]4(C(=O)NS(=O)(=O)C5(C)CC5)C[C@H]4/C=C\CC[C@H](C)C[C@@H](C)[C@H](NC(=O)OC(C)(C)C)C(=O)N3C2)c2ccccc2c1=O [Compound 1005, tert-butyl ((2R,6S,7R,9S,13aS,14aR,16aS,Z)-2-((3-(2-methoxyethyl)-4-oxo-3,4-dihydrophthalazin-1-yl)oxy)-7,9-dimethyl-14a-(((1-methylcyclopropyl)sulfonyl)carbamoyl)-5,16-dioxo-1,2,3,5,6,7,8,9,10,11,13a,14,14a,15,16,16a-hexadecahydrocyclopropa[e]pyrrolo[1,2-a][1,4]diazacyclopentadecin-6-yl)carbamate] | > 0.0874 | – | > 0.0874 | –
COCCn1nc(O[C@@H]2C[C@H]3C(=O)N[C@]4(C(=O)NS(=O)(=O)C5(C)CC5)C[C@H]4/C=C\CC[C@@H](C)C[C@@H](C)[C@H](NC(=O)OC(C)(C)C)C(=O)N3C2)c2ccccc2c1=O [Compound 1006, tert-butyl ((2R,6S,7R,9R,13aS,14aR,16aS,Z)-2-((3-(2-methoxyethyl)-4-oxo-3,4-dihydrophthalazin-1-yl)oxy)-7,9-dimethyl-14a-(((1-methylcyclopropyl)sulfonyl)carbamoyl)-5,16-dioxo-1,2,3,5,6,7,8,9,10,11,13a,14,14a,15,16,16a-hexadecahydrocyclopropa[e]pyrrolo[1,2-a][1,4]diazacyclopentadecin-6-yl)carbamate] | 0.00482 to 0.103 | – | 0.00482 to 0.103 | –
COCCn1nc(O[C@@H]2C[C@H]3C(=O)N[C@]4(C(=O)NS(=O)(=O)C5CC5)C[C@H]4/C=C\CC[C@H](C)C[C@@H](C)[C@H](NC(=O)OC(C)(C)C)C(=O)N3C2)c2ccccc2c1=O [Compound 1007, tert-butyl ((2R,6S,7R,9S,13aS,14aR,16aS,Z)-14a-((cyclopropylsulfonyl)carbamoyl)-2-((3-(2-methoxyethyl)-4-oxo-3,4-dihydrophthalazin-1-yl)oxy)-7,9-dimethyl-5,16-dioxo-1,2,3,5,6,7,8,9,10,11,13a,14,14a,15,16,16a-hexadecahydrocyclopropa[e]pyrrolo[1,2-a][1,4]diazacyclopentadecin-6-yl)carbamate] | > 0.0874 | 0.438 | > 0.0874 | ≥ 1
COCCn1nc(O[C@@H]2C[C@H]3C(=O)N[C@]4(C(=O)NS(=O)(=O)C5CC5)C[C@H]4/C=C\CC[C@@H](C)C[C@@H](C)[C@H](NC(=O)OC(C)(C)C)C(=O)N3C2)c2ccccc2c1=O [Compound 1008, tert-butyl ((2R,6S,7R,9R,13aS,14aR,16aS,Z)-14a-((cyclopropylsulfonyl)carbamoyl)-2-((3-(2-methoxyethyl)-4-oxo-3,4-dihydrophthalazin-1-yl)oxy)-7,9-dimethyl-5,16-dioxo-1,2,3,5,6,7,8,9,10,11,13a,14,14a,15,16,16a-hexadecahydrocyclopropa[e]pyrrolo[1,2-a][1,4]diazacyclopentadecin-6-yl)carbamate] | 0.00482 to 0.103 | – | 0.00482 to 0.103 | –
CC(C)n1nc(O[C@@H]2C[C@H]3C(=O)N[C@]4(C(=O)NS(=O)(=O)C5CC5)C[C@H]4/C=C\CC[C@H](C)C[C@@H](C)[C@H](NC(=O)OC(C)(C)C(F)(F)F)C(=O)N3C2)c2ccccc2c1=O [Compound 1009, 1,1,1-trifluoro-2-methylpropan-2-yl((2R,6S,7R,9S,13aS,14aR,16aS,Z)-14a-((cyclopropylsulfonyl)carbamoyl)-2-((3-isopropyl-4-oxo-3,4-dihydrophthalazin-1-yl)oxy)-7,9-dimethyl-5,16-dioxo-1,2,3,5,6,7,8,9,10,11,13a,14,14a,15,16,16a-hexadecahydrocyclopropa[e]pyrrolo[1,2-a][1,4]diazacyclopentadecin-6-yl)carbamate] | > 0.0874 | – | > 0.0874 | –
CC(C)n1nc(O[C@@H]2C[C@H]3C(=O)N[C@]4(C(=O)NS(=O)(=O)C5CC5)C[C@H]4/C=C\CC[C@@H](C)C[C@@H](C)[C@H](NC(=O)OC(C)(C)C(F)(F)F)C(=O)N3C2)c2ccccc2c1=O [Compound 1010, 1,1,1-trifluoro-2-methylpropan-2-yl((2R,6S,7R,9R,13aS,14aR,16aS,Z)-14a-((cyclopropylsulfonyl)carbamoyl)-2-((3-isopropyl-4-oxo-3,4-dihydrophthalazin-1-yl)oxy)-7,9-dimethyl-5,16-dioxo-1,2,3,5,6,7,8,9,10,11,13a,14,14a,15,16,16a-hexadecahydrocyclopropa[e]pyrrolo[1,2-a][1,4]diazacyclopentadecin-6-yl)carbamate] | 0.00482 to 0.103 | – | 0.00482 to 0.103 | –
CC(C)n1nc(O[C@@H]2C[C@H]3C(=O)N[C@]4(C(=O)NS(=O)(=O)C5(C)CC5)C[C@H]4/C=C\CC[C@H](C)C[C@@H](C)[C@H](NC(=O)OC(C)(C)C(F)(F)F)C(=O)N3C2)c2ccccc2c1=O [Compound 1011, 1,1,1-trifluoro-2-methylpropan-2-yl((2R,6S,7R,9S,13aS,14aR,16aS,Z)-2-((3-isopropyl-4-oxo-3,4-dihydrophthalazin-1-yl)oxy)-7,9-dimethyl-14a-(((1-methylcyclopropyl)sulfonyl)carbamoyl)-5,16-dioxo-1,2,3,5,6,7,8,9,10,11,13a,14,14a,15,16,16a-hexadecahydrocyclopropa[e]pyrrolo[1,2-a][1,4]diazacyclopentadecin-6-yl)carbamate] | > 0.0874 | 0.362 | > 0.0874 | ≥ 1
CC(C)n1nc(O[C@@H]2C[C@H]3C(=O)N[C@]4(C(=O)NS(=O)(=O)C5(C)CC5)C[C@H]4/C=C\CC[C@@H](C)C[C@@H](C)[C@H](NC(=O)OC(C)(C)C(F)(F)F)C(=O)N3C2)c2ccccc2c1=O [Compound 1012, 1,1,1-trifluoro-2-methylpropan-2-yl((2R,6S,7R,9R,13aS,14aR,16aS,Z)-2-((3-isopropyl-4-oxo-3,4-dihydrophthalazin-1-yl)oxy)-7,9-dimethyl-14a-(((1-methylcyclopropyl)sulfonyl)carbamoyl)-5,16-dioxo-1,2,3,5,6,7,8,9,10,11,13a,14,14a,15,16,16a-hexadecahydrocyclopropa[e]pyrrolo[1,2-a][1,4]diazacyclopentadecin-6-yl)carbamate] | 0.00482 to 0.103 | – | 0.00482 to 0.103 | –
COCCn1nc(O[C@@H]2C[C@H]3C(=O)N[C@]4(C(=O)NS(=O)(=O)C5(C)CC5)C[C@H]4/C=C\CC[C@@H](C)C[C@@H](C)[C@H](NC(=O)OC(C)(C)C(F)(F)F)C(=O)N3C2)c2ccccc2c1=O [Compound 1014, 1,1,1-trifluoro-2-methylpropan-2-yl((2R,6S,7R,9R,13aS,14aR,16aS,Z)-2-((3-(2-methoxyethyl)-4-oxo-3,4-dihydrophthalazin-1-yl)oxy)-7,9-dimethyl-14a-(((1-methylcyclopropyl)sulfonyl)carbamoyl)-5,16-dioxo-1,2,3,5,6,7,8,9,10,11,13a,14,14a,15,16,16a-hexadecahydrocyclopropa[e]pyrrolo[1,2-a][1,4]diazacyclopentadecin-6-yl)carbamate] | 0.00482 to 0.103 | – | 0.00482 to 0.103 | –
CC(C)n1nc(O[C@@H]2C[C@H]3C(=O)N[C@]4(C(=O)NS(=O)(=O)C5(C)CC5)C[C@H]4/C=C\CC[C@H](C)C[C@@H](C)[C@H](NC(=O)OC(C)(C)C(C)(F)F)C(=O)N3C2)c2ccccc2c1=O [Compound 1015, 3,3-difluoro-2-methylbutan-2-yl((2R,6S,7R,9S,13aS,14aR,16aS,Z)-2-((3-isopropyl-4-oxo-3,4-dihydrophthalazin-1-yl)oxy)-7,9-dimethyl-14a-(((1-methylcyclopropyl)sulfonyl)carbamoyl)-5,16-dioxo-1,2,3,5,6,7,8,9,10,11,13a,14,14a,15,16,16a-hexadecahydrocyclopropa[e]pyrrolo[1,2-a][1,4]diazacyclopentadecin-6-yl)carbamate] | > 0.0874 | – | > 0.0874 | –
CC(C)n1nc(O[C@@H]2C[C@H]3C(=O)N[C@]4(C(=O)NS(=O)(=O)C5(C)CC5)C[C@H]4/C=C\CC[C@@H](C)C[C@@H](C)[C@H](NC(=O)OC(C)(C)C(C)(F)F)C(=O)N3C2)c2ccccc2c1=O [Compound 1016, 3,3-difluoro-2-methylbutan-2-yl((2R,6S,7R,9R,13aS,14aR,16aS,Z)-2-((3-isopropyl-4-oxo-3,4-dihydrophthalazin-1-yl)oxy)-7,9-dimethyl-14a-(((1-methylcyclopropyl)sulfonyl)carbamoyl)-5,16-dioxo-1,2,3,5,6,7,8,9,10,11,13a,14,14a,15,16,16a-hexadecahydrocyclopropa[e]pyrrolo[1,2-a][1,4]diazacyclopentadecin-6-yl)carbamate] | 0.00482 to 0.103 | – | 0.00482 to 0.103 | –
